# Experimental data from PubChem BioAssay (NCI).
#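 Values below derive from 48-hour exposures of cells grown in 96-well plates, with endpoints linearly interpolated between the two concentrations bracketing the appropriate inhibition level. TGI: total growth inhibition.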
# Assays:
# Test in all cases: NCI tumour cell line growth inhibition, 48 h
# [1] = tested on: 786-0 renal
# [2] = tested on: A498 renal
# [3] = tested on: A549 NSCLC
# [4] = tested on: ACHN renal
# [5] = tested on: BT-549 breast
# [6] = tested on: CAKI-1 renal
# [7] = tested on: CCRF-CEM leukemia
# [8] = tested on: COLO 205 colon
# [9] = tested on: DU-145 prostate
# [10] = tested on: EKVX NSCLC
# [11] = tested on: HCT-116 colon
# [12] = tested on: HCT-15 colon
# [13] = tested on: HL-60(TB) leukemia
# [14] = tested on: HOP-62 NSCLC
# [15] = tested on: HOP-92 NSCLC
# [16] = tested on: HS 578T breast
# [17] = tested on: HT29 colon
# [18] = tested on: IGROV1 ovarian
# [19] = tested on: K-562 leukemia
# [20] = tested on: KM12 colon
# [21] = tested on: LOX IMVI melanoma
# [22] = tested on: M14 melanoma
# [23] = tested on: MALME-3M melanoma
# [24] = tested on: MDA-MB-231 breast
# [25] = tested on: MDA-MB-435
# [26] = tested on: MDA-N
# [27] = tested on: MOLT-4 leukemia
# [28] = tested on: NCI-H226 lung
# [29] = tested on: NCI-H23 lung
# [30] = tested on: NCI-H460 lung
# [31] = tested on: NCI-H522 lung
# [32] = tested on: NCI/ADR-RES ovarian
# [33] = tested on: OVCAR-3 ovarian
# [34] = tested on: OVCAR-4 ovarian
# [35] = tested on: OVCAR-5 ovarian
# [36] = tested on: OVCAR-8 ovarian
# [37] = tested on: PC-3 prostate
# [38] = tested on: RPMI-8226 leukemia
# [39] = tested on: RXF 393 renal
# [40] = tested on: SF-268 CNS
# [41] = tested on: SF-295 CNS
# [42] = tested on: SF-539 CNS
# [43] = tested on: SK-MEL-2 melanoma
# [44] = tested on: SK-MEL-28 melanoma
# [45] = tested on: SK-MEL-5 melanoma
# [46] = tested on: SK-OV-3 ovarian
# [47] = tested on: SN12C renal
# [48] = tested on: SNB-19 CNS
# [49] = tested on: SNB-75 CNS
# [50] = tested on: SR leukemia
# [51] = tested on: SW-620 colon
# [52] = tested on: T-47D breast
# [53] = tested on: TK-10 renal
# [54] = tested on: U251 CNS
# [55] = tested on: UACC-257 melanoma
# [56] = tested on: UACC-62 melanoma
# [57] = tested on: UO-31 renal
# [58] = tested on: HCC-2998 colon
# [59] = tested on: MCF7 breast
smiles,measurement,setting,value
CCC1(CC)C(=O)CC[C@@]2(C)C1=CC[C@H]1[C@@H]3CC[C@H](O)[C@@]3(C)CC[C@@H]12,TGI,[1],29.6 µM
same,TGI,[2],44.6 µM
same,TGI,[3],28.9 µM
same,TGI,[4],> 100 µM
same,TGI,[5],> 100 µM
same,TGI,[6],> 100 µM
same,TGI,[7],45.7 µM
same,TGI,[8],88.9 µM
same,TGI,[9],85.4 µM
same,TGI,[10],> 100 µM
same,TGI,[11],63.8 µM
same,TGI,[12],> 100 µM
same,TGI,[13],46.4 µM
same,TGI,[14],37 µM
same,TGI,[15],> 100 µM
same,TGI,[16],72.6 µM
same,TGI,[17],28.5 µM
same,TGI,[18],> 100 µM
same,TGI,[19],37.3 µM
same,TGI,[20],> 100 µM
same,TGI,[21],37.8 µM
same,TGI,[22],> 100 µM
same,TGI,[23],> 100 µM
same,TGI,[24],> 100 µM
same,TGI,[25],> 100 µM
same,TGI,[26],> 100 µM
same,TGI,[27],54.8 µM
same,TGI,[28],87.5 µM
same,TGI,[29],> 100 µM
same,TGI,[30],32.2 µM
same,TGI,[31],78.6 µM
same,TGI,[32],> 100 µM
same,TGI,[33],45 µM
same,TGI,[34],> 100 µM
same,TGI,[35],> 100 µM
same,TGI,[36],56.5 µM
same,TGI,[37],> 100 µM
same,TGI,[38],32.4 µM
same,TGI,[39],> 100 µM
same,TGI,[40],99.2 µM
same,TGI,[41],62.1 µM
same,TGI,[42],> 100 µM
same,TGI,[43],> 100 µM
same,TGI,[44],> 100 µM
same,TGI,[45],> 100 µM
same,TGI,[46],> 100 µM
same,TGI,[47],31.6 µM
same,TGI,[48],> 100 µM
same,TGI,[49],> 100 µM
same,TGI,[50],31.8 µM
same,TGI,[51],63.1 µM
same,TGI,[52],99.7 µM
same,TGI,[53],41.9 µM
same,TGI,[54],33.9 µM
same,TGI,[55],82.6 µM
same,TGI,[56],> 100 µM
same,TGI,[57],34.7 µM
C/C(=C/CO[Si](C)(C)C(C)(C)C)C(=O)N(C)c1ccccc1I,TGI,[1],31.7 µM
same,TGI,[2],31 µM
same,TGI,[3],32.4 µM
same,TGI,[4],31 µM
same,TGI,[5],35.8 µM
same,TGI,[6],29.9 µM
same,TGI,[7],43 µM
same,TGI,[8],33.8 µM
same,TGI,[9],36.7 µM
same,TGI,[10],29.1 µM
same,TGI,[58],28.3 µM
same,TGI,[11],25.8 µM
same,TGI,[12],34.5 µM
same,TGI,[13],32 µM
same,TGI,[14],36.5 µM
same,TGI,[15],22.5 µM
same,TGI,[16],43.5 µM
same,TGI,[17],22.6 µM
same,TGI,[18],29.9 µM
same,TGI,[19],> 100 µM
same,TGI,[20],33.6 µM
same,TGI,[21],31.8 µM
same,TGI,[22],28.6 µM
same,TGI,[23],28.3 µM
same,TGI,[59],30.6 µM
same,TGI,[24],28.3 µM
same,TGI,[25],33.7 µM
same,TGI,[26],31.9 µM
same,TGI,[27],72.9 µM
same,TGI,[28],32.4 µM
same,TGI,[29],41.2 µM
same,TGI,[30],30 µM
same,TGI,[31],31.5 µM
same,TGI,[32],37.1 µM
same,TGI,[33],31.3 µM
same,TGI,[34],31.2 µM
same,TGI,[35],27.8 µM
same,TGI,[36],32.2 µM
same,TGI,[37],27 µM
same,TGI,[38],77.9 µM
same,TGI,[39],31.9 µM
same,TGI,[40],33.4 µM
same,TGI,[41],31.5 µM
same,TGI,[42],32.3 µM
same,TGI,[43],30.5 µM
same,TGI,[44],35.7 µM
same,TGI,[45],29 µM
same,TGI,[46],35.5 µM
same,TGI,[47],31.1 µM
same,TGI,[48],30.6 µM
same,TGI,[49],33.4 µM
same,TGI,[50],51.7 µM
same,TGI,[51],35.8 µM
same,TGI,[52],35.9 µM
same,TGI,[53],33.3 µM
same,TGI,[54],28.6 µM
same,TGI,[55],26.4 µM
same,TGI,[56],28 µM
same,TGI,[57],28 µM
O=C(O)C(CCc1ccccn1)c1ccccc1 (centres undefined),TGI,[1],> 100 µM
same,TGI,[2],> 100 µM
same,TGI,[3],> 100 µM
same,TGI,[4],> 100 µM
same,TGI,[5],> 100 µM
same,TGI,[6],> 100 µM
same,TGI,[8],> 100 µM
same,TGI,[9],> 100 µM
same,TGI,[10],> 100 µM
same,TGI,[58],> 100 µM
same,TGI,[11],> 100 µM
same,TGI,[12],> 100 µM
same,TGI,[13],> 100 µM
same,TGI,[14],> 100 µM
same,TGI,[15],> 100 µM
same,TGI,[16],> 100 µM
same,TGI,[17],> 100 µM
same,TGI,[18],> 100 µM
same,TGI,[19],> 100 µM
same,TGI,[20],> 100 µM
same,TGI,[21],> 100 µM
same,TGI,[22],> 100 µM
same,TGI,[23],> 100 µM
same,TGI,[59],> 100 µM
same,TGI,[24],> 100 µM
same,TGI,[25],> 100 µM
same,TGI,[26],> 100 µM
same,TGI,[27],> 100 µM
same,TGI,[28],> 100 µM
same,TGI,[29],> 100 µM
same,TGI,[30],> 100 µM
same,TGI,[31],> 100 µM
same,TGI,[32],> 100 µM
same,TGI,[33],> 100 µM
same,TGI,[34],> 100 µM
same,TGI,[35],> 100 µM
same,TGI,[36],> 100 µM
same,TGI,[37],> 100 µM
same,TGI,[38],> 100 µM
same,TGI,[39],> 100 µM
same,TGI,[40],> 100 µM
same,TGI,[41],> 100 µM
same,TGI,[42],> 100 µM
same,TGI,[43],> 100 µM
same,TGI,[44],> 100 µM
same,TGI,[45],> 100 µM
same,TGI,[46],> 100 µM
same,TGI,[47],> 100 µM
same,TGI,[48],> 100 µM
same,TGI,[49],> 100 µM
same,TGI,[50],> 100 µM
same,TGI,[51],> 100 µM
same,TGI,[52],> 100 µM
same,TGI,[53],> 100 µM
same,TGI,[54],> 100 µM
same,TGI,[55],> 100 µM
same,TGI,[56],> 100 µM
same,TGI,[57],> 100 µM
